In brackets after ≈: the same amount, converted by molar mass. Several values for one entry are separate records, joined by “and”; a condition that tells them apart may be missing. Equal entries are not always repeated.
Legend:
Experiment in all cases: ≥ marks a high value that may be exact or a test limit, other limits are often not marked, values filed in µg/mL are converted to µM
Streptococcus pyogenes = system: Streptococcus pyogenes
[1] = system: Stenotrophomonas maltophilia ATCC 13637
[2] = system: Candida albicans ATCC 90112
[3] = system: Micrococcus luteus ATCC 10240
[4] = system: Staphylococcus aureus ATCC 25923
[5] = system: Bacillus subtilis ATCC 6633
[6] = system: Staphylococcus epidermidis
Proteus mirabilis = system: Proteus mirabilis
[7] = system: Escherichia coli ATCC 25922
[8] = system: Pseudomonas aeruginosa ATCC 27853
[9] = system: Streptococcus dysgalactiae
Escherichia coli = system: Escherichia coli
[10] = system: Acinetobacter calcoaceticus
Streptococcus uberis = system: Streptococcus uberis
[11] = system: Bacillus subtilis ATCC 23857
Staphylococcus aureus = system: Staphylococcus aureus
[12] = system: Staphylococcus aureus ATCC 29313
Candida albicans = system: Candida albicans
Fusarium oxysporum = system: Fusarium oxysporum
[13] = system: Pectobacterium carotovorum
Trichoderma asperellum = system: Trichoderma asperellum
[14] = system: Candida albicans ATCC 90028
[15] = system: Bacillus cereus ATCC 14579
Rhizoctonia solani = system: Rhizoctonia solani
[16] = system: Candida albicans ATCC 1023
Ramulariopsis gossypii = system: Ramulariopsis gossypii
[17] = system: Xanthomonas axonopodis pv. glycines ISBF 327
[18] = system: Pseudomonas syringae pv. tabaci
[19] = system: Xanthomonas campestris pv. citri
Candida tropicalis = system: Candida tropicalis
[20] = system: Cryptococcus neoformans ATCC 28957
Fusarium solani = system: Fusarium solani
[21] = system: Staphylococcus aureus USA 300
[22] = system: Pseudomonas aeruginosa PAO1
[23] = system: Pseudomonas aeruginosa NCTC 13437
[24] = system: Escherichia coli NCTC 12923
[25] = system: Staphylococcus aureus CCARM 3543
[26] = system: Acinetobacter baumannii ATCC 17978
[27] = system: Salmonella typhimurium KCTC 1926
[28] = system: Staphylococcus aureus KCTC 1621
[29] = system: Staphylococcus aureus ATCC 9144
[30] = system: Klebsiella pneumoniae NCTC 13368
[31] = system: Pseudomonas aeruginosa KCTC 1637
[32] = system: Staphylococcus aureus CCARM 3001
[33] = system: Escherichia coli KCTC 1682
[34] = system: Pseudomonas aeruginosa CCARM 2095
[35] = system: Staphylococcus epidermidis KCTC 1917
[36] = system: Staphylococcus aureus ATCC 6538
[37] = system: Micrococcus luteus ATCC 9341
[38] = system: Candida albicans ATCC 36232
[39] = system: Spiroplasma melliferum BC3
[40] = system: Mycoplasma mycoides ssp. mycoides SC KH3J
Spiroplasma citri R8A2 = system: Spiroplasma citri R8A2
[41] = system: Acholeplasma laidlawii A-EF22
[42] = system: Spiroplasma floricola BNR 1

## CC[C@H](C)[C@H](NC(=O)CNC(=O)[C@H](CCSC)NC(=O)[C@@H](NC(=O)[C@H](CC(=O)O)NC(=O)[C@@H](N)Cc1ccccc1)C(C)C)C(=O)N[C@H](C(=O)N[C@@H](CCCCN)C(=O)N[C@@H](CCCCN)C(=O)N[C@H](C(=O)N[C@@H](C)C(=O)N[C@@H](CO)C(=O)N[C@@H](C)C(=O)N[C@@H](CC(C)C)C(N)=O)[C@@H](C)CC)[C@@H](C)CC [FDVMGIIKKIASAL]
Streptococcus pyogenes
  MIC: 30 µM (≈ 45.1 µg/mL)
[1]
  MIC: 30 µM (≈ 45.1 µg/mL)
[2]
  MIC: 7.5 µM (≈ 11.3 µg/mL)
[3]
  MIC: 30 µM (≈ 45.1 µg/mL)
[4]
  MIC: 30 µM (≈ 45.1 µg/mL)
[5]
  MIC: 30 µM (≈ 45.1 µg/mL)
[6]
  MIC: 30 µM (≈ 45.1 µg/mL)
Proteus mirabilis
  MIC: ≥ 60 µM
[7]
  MIC: 30 µM (≈ 45.1 µg/mL)
[8]
  MIC: > 30 µM

## CC[C@H](C)[C@H](NC(=O)[C@H](C)NC(=O)[C@H](C)NC(=O)[C@H](CCC(=O)O)NC(=O)[C@H](CCCCN)NC(=O)CNC(=O)[C@H](CCCCN)NC(=O)[C@H](CCC(N)=O)NC(=O)[C@H](CCCCN)NC(=O)[C@@H](NC(=O)[C@@H](NC(=O)[C@H](CO)NC(=O)[C@H](Cc1c[nH]c2ccccc12)NC(=O)[C@H](CC(C)C)NC(=O)CN)[C@@H](C)O)[C@@H](C)CC)C(=O)N[C@@H](C)C(=O)N[C@@H](C)C(=O)N[C@@H](C)C(=O)N[C@@H](CCCCN)C(=O)N[C@@H](C)C(=O)N[C@@H](C)C(=O)NCC(=O)N[C@@H](CCC(N)=O)C(=O)N[C@@H](C)C(=O)N[C@@H](C)C(=O)N[C@@H](CC(C)C)C(=O)NCC(=O)N[C@@H](C)C(=O)N[C@@H](CC(C)C)C(N)=O [GLWSTIKQKGKEAAIAAAKAAGQAALGAL]
[9]
  MIC: 5.7 µM (≈ 15.9 µg/mL)
Escherichia coli
  MIC: 6.42 µM (≈ 17.9 µg/mL)
[10]
  MIC: 25.7 µM (≈ 71.7 µg/mL)
Streptococcus uberis
  MIC: 5.7 µM (≈ 15.9 µg/mL)
[11]
  MIC: 1 µM (≈ 2.79 µg/mL)
[4]
  MIC: 3.2 µM and 8 µM
Staphylococcus aureus
  MIC: 12.8 µM and 5.7 µM
[12]
  MIC: 11 µM (≈ 30.7 µg/mL)
Candida albicans
  MIC: 5.7 µM (≈ 15.9 µg/mL)
Fusarium oxysporum
  MIC: 16 µM (≈ 44.7 µg/mL)
[13]
  MIC: 0.5 µM (≈ 1.4 µg/mL)
Trichoderma asperellum
  MIC: 8 µM (≈ 22.4 µg/mL)
[14]
  MIC: 4 µM (≈ 11.2 µg/mL)
[15]
  MIC: 16 µM (≈ 44.7 µg/mL)
Rhizoctonia solani
  MIC: ≥ 64 µM
[16]
  MIC: 5.7 µM (≈ 15.9 µg/mL)
Ramulariopsis gossypii
  MIC: 8 µM (≈ 22.4 µg/mL)
[17]
  MIC: 1 µM (≈ 2.79 µg/mL)
[18]
  MIC: 1 µM (≈ 2.79 µg/mL)
[19]
  MIC: 0.5 µM (≈ 1.4 µg/mL)
Candida tropicalis
  MIC: 0.37 µM (≈ 1.03 µg/mL)
[20]
  MIC: 8 µM (≈ 22.4 µg/mL)
Fusarium solani
  MIC: 16 µM (≈ 44.7 µg/mL)

## CC[C@H](C)[C@H](N)C(=O)N[C@@H](CC(C)C)C(=O)NCC(=O)N[C@@H](CCCCN)C(=O)N[C@H](C(=O)N[C@@H](Cc1c[nH]c2ccccc12)C(=O)N[C@@H](CCCCN)C(=O)N1CCC[C@H]1C(=O)N[C@H](C(=O)N[C@@H](CCCCN)C(=O)N[C@@H](CCCCN)C(=O)N[C@@H](CC(C)C)C(=O)N[C@@H](Cc1ccccc1)C(N)=O)[C@@H](C)CC)[C@@H](C)CC [ILGKIWKPIKKLF]
[21]
  MIC: ≥ 40.4 µM
[22]
  MIC: > 80.8 µM
[23]
  MIC: ≥ 40.4 µM
[24]
  MIC: 10.1 µM (≈ 16 µg/mL)
[25]
  MIC: 0.5 µM (≈ 0.792 µg/mL)
[26]
  MIC: 5.05 µM (≈ 8 µg/mL)
[27]
  MIC: 1 µM (≈ 1.58 µg/mL)
[28]
  MIC: 2 µM (≈ 3.17 µg/mL)
[29]
  MIC: 5.05 µM (≈ 8 µg/mL)
[30]
  MIC: ≥ 40.4 µM
[31]
  MIC: 2 µM (≈ 3.17 µg/mL)
[32]
  MIC: 1 µM (≈ 1.58 µg/mL)
[33]
  MIC: 2 µM (≈ 3.17 µg/mL)
[34]
  MIC: 1 µM (≈ 1.58 µg/mL)
[35]
  MIC: 1 µM (≈ 1.58 µg/mL)

## CC(C)[C@H](NC(=O)[C@H](CCCCN)NC(=O)[C@H](Cc1ccccc1)NC(=O)[C@@H](NC(=O)[C@@H](NC(=O)[C@H](CCCCN)NC(=O)[C@H](CCCCN)NC(=O)[C@@H](N)CCCCN)C(C)C)C(C)C)C(=O)N[C@@H](CCCCN)C(=O)N[C@@H](Cc1ccccc1)C(=O)N[C@@H](CCCCN)C(=O)N[C@@H](CCCCN)C(N)=O [KKKVVFKVKFKK]
[36]
  MIC: 2.08 µM (≈ 3.13 µg/mL)
[37]
  MIC: 2.08 µM (≈ 3.13 µg/mL)
[38]
  MIC: 4.15 µM and 2.08 µM

## CC(C)C[C@H](NC(=O)[C@H](CCCCN)NC(=O)[C@H](CC(C)C)NC(=O)[C@H](CC(C)C)NC(=O)[C@H](CC(C)C)NC(=O)[C@H](CCCCN)NC(=O)[C@H](CC(C)C)NC(=O)[C@H](CC(C)C)NC(=O)[C@H](CC(C)C)NC(=O)[C@H](CCCCN)NC(=O)[C@H](CC(C)C)NC(=O)[C@H](CC(C)C)NC(=O)[C@@H](N)CCCCN)C(=O)N[C@@H](Cc1c[nH]c2ccccc12)C(=O)N[C@@H](CCCCN)C(=O)O [KLLKLLLKLLLKLWK]
[39]
  MIC: 6.25 µM (≈ 11.6 µg/mL)
[40]
  MIC: 6.25 µM (≈ 11.6 µg/mL)
Spiroplasma citri R8A2
  MIC: 6.25 µM (≈ 11.6 µg/mL)
[41]
  MIC: 1.56 µM (≈ 2.91 µg/mL)
[42]
  MIC: 6.25 µM (≈ 11.6 µg/mL)

Reference: DBAASP
